Numbering of substitutions follows the chain as printed.
Columns and labels:
human ALDH2 wild type = target: T1, human ALDH2 wild type (Homo sapiens, UniProt P05091); test: ALDH2 enzymatic assay (NADH at 340 nm), recombinant wild type enzyme; format: biochemical; design: key: −: no activation or inhibition; +: activation less than control 1; ++: activation similar to control 1, within 10%; +++: activation more than control 1 and less than control (compound 161); ++++: activation similar to compound 161, within 10%; settings: activation relative to benchmarks control 1 and compound 161
T1 construct: His-tag (pTrcHis vector) (N); made in house; host or cells: E. coli BL21
T1 sequence (P05091 18-517): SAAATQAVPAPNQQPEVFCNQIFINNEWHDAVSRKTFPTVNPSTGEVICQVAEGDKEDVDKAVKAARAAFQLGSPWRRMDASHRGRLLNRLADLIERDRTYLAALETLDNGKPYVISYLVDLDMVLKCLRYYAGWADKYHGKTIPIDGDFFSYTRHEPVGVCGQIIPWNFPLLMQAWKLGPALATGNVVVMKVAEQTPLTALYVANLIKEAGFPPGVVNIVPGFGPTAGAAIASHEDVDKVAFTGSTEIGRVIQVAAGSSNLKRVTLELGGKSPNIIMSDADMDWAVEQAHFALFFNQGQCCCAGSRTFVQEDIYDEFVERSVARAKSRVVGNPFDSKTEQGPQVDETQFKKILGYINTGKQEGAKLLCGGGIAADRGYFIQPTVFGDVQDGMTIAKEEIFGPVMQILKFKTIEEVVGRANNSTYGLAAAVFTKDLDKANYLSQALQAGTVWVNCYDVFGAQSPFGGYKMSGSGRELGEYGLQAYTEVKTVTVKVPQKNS
Text: (§1) ALDH2 catalyzes the oxidative reaction of substrate acetaldehyde to acetic acid using NAD^+ as a cofactor. Enzymatic activity, or catalytic rate, of aldehyde dehydrogenase (ALDH2) can be measured spectrophotometrically at UV wavelength λ340 nm by the accumulation of reduced product NADH derived from NAD^+. […] This method is well-established in the literature [e.g. D. K. Rex, W. F. Bosron, J. E. Smialek, T. K. Li, Alcohol Clin Exp Res 9, 147 (1985)].
(§2) Full-length wild type human ALDH2 cDNA was purchased from ATCC (No. MGC-1806. GenBank ID: BC002967). The 18-amino acid mitochondria transport signal sequence was removed by PCR and cloned into the NheI/HindIII sites of a His-tag vector, pTrcHis, using standard molecular cloning techniques. The human ALDH2* cDNA construct containing the Asian E487K mutation was obtained by site-directed mutagenesis to create the E487K substitution of the wild type ALDH2. Both human clones were designed to express a recombinant protein with the His-tag at the N-terminus of the protein. For the co-expression experiments of human ALDH2 wild type and ALDH2*2 heterotetramers, a wild type ALDH2 gene and a ALDH2 E487K gene were inserted separately into the two multiple cloning sites of pETDuet-1 vector. (Novagen, Calif., USA). All the vectors were transformed into BL21 E. coli host cells and subjected to 0.5 mM IPTG induction for protein expression at 30° C. Purifications of the recombinant proteins by affinity nickel columns (HisTrap, GE Healthy Science, USA) were carried out using standard protocols according to manufacturer's instructions (Novagen, USA).
(§3) Control 1 and compound 161 are used as benchmarks and the symbols have the following representation: […]

[1] = target: T2, human ALDH2*2 recombinant mutant enzyme (E487K) (Homo sapiens, UniProt P05091, E504K); test: ALDH2 enzymatic assay (NADH at 340 nm), recombinant mutant enzyme; format: biochemical; design: key: −: no activation or inhibition; +: activation less than control 1; ++: activation similar to control 1, within 10%; +++: activation more than control 1 and less than control (compound 161); ++++: activation similar to compound 161, within 10%; settings: activation relative to benchmarks control 1 and compound 161
T2 construct: His-tag (pTrcHis vector) (N); made in house; host or cells: E. coli BL21
T2 sequence (P05091 18-517 E504K): T1 sequence (P05091 18-517) with E487K
Text: as §1, §2, §3

ALDH2 (wild-type) (human ALDH2 wild type)	ALDH2 (mutant) [1]	SMILES
+	+	COc1ccc(CNC(=O)c2c(Cl)cccc2Cl)cc1Cl [Compound 100]
+	+	COc1ccc(CNC(=O)c2c(Cl)cccc2Cl)cc1O [Compound 101]
++	++	COc1ccc(CNC(=O)c2c(Cl)cccc2Cl)cc1F [Compound 102]
+	+	COc1cccc(CNC(=O)c2c(Cl)cccc2Cl)c1 [Compound 103]
+	+	COc1ccc(CNC(=O)c2c(Cl)cccc2Br)cc1Cl [Compound 104]
−	+	COc1ccc(CNC(=O)c2c(Cl)cccc2Br)cc1O [Compound 105]
+	++	COc1ccc(CNC(=O)c2c(Cl)cccc2Br)cc1F [Compound 106]
+	+	COc1cccc(CNC(=O)c2c(Cl)cccc2Br)c1 [Compound 107]
++	+	COc1ccc(CNC(=O)c2c(Cl)cccc2Br)cc1 [Compound 108]
+	++	COc1ccc(CNC(=O)c2c(Cl)cccc2NCCO)cc1F [Compound 109]
+	++	COc1ccc(CNC(=O)c2c(Cl)cccc2Oc2ccccc2)cc1F [Compound 110]
−	−	CN(C)c1ccc(CNC(=O)c2c(Cl)cccc2Cl)cc1 [Compound 111]
+	+	CS(=O)(=O)c1ccc(CNC(=O)c2c(Cl)cccc2Cl)cc1 [Compound 112]
+	+	COc1ccc(CNC(=O)c2c(C)cccc2Br)cc1 [Compound 113]
+	+	COc1ccc(CNC(=O)c2c(C)cccc2C)cc1 [Compound 114]
+	+	COc1ccc(CNC(=O)c2cc(Br)ccc2C)cc1 [Compound 115]
+	+	COc1ccc(CNC(=O)c2ccc(Br)cc2C)cc1 [Compound 116]
+	++	COc1ccc(CNC(=O)c2c(C)cccc2NCC(C)C)cc1F [Compound 117]
+	+	CS(=O)(=O)c1ccc(CNc2cccc(Cl)c2C(=O)NCc2ccc3c(c2)OCO3)cc1 [Compound 118]
−	+	COc1ccc(CNC(=O)c2c(C)cccc2C)cc1F [Compound 119]
−	+	COc1ccc(CNC(=O)c2c(NCCO)cccc2NCCO)cc1F [Compound 120]
+	+	COc1ccc(CNC(=O)c2ccccc2Cl)cc1F [Compound 121]
+	++	COc1ccc(CNC(=O)c2c(Cl)cccc2OCCC(C)C)cc1F [Compound 122]
+	+	COc1ccc(CNC(=O)c2cc(Br)ccc2C)cc1F [Compound 123]
+	+	COc1ccc(CNC(=O)c2ccc(Br)cc2C)cc1F [Compound 124]

ALDH2 (wild-type) (human ALDH2 wild type)	ALDH2 (mutant) [1]	SMILES
+	+	COc1ccc(CNC(=O)c2c(C)cccc2Br)cc1F [Compound 125]
+	+	O=C(O)c1ccc(CNC(=O)c2c(Cl)cccc2Br)cc1 [Compound 127]
+	+	O=C(NCc1ccc([N+](=O)[O-])cc1)c1c(Cl)cccc1Br [Compound 128]
−	−	COc1ccc(CNC(=O)c2c(Cl)cccc2NCc2cccc(C)c2)cc1F [Compound 129]
−	−	COc1ccc(CNC(=O)c2c(Cl)cccc2NCc2ccc(Cl)cc2)cc1F [Compound 130]
+	+	COc1ccc(CNC(=O)c2c(Cl)cccc2Oc2cccc(C)c2)cc1F [Compound 131]
+	+	COc1ccc(CNC(=O)c2c(Cl)cccc2Oc2ccc(C)cc2)cc1F [Compound 132]
+	+	O=C(NCc1ccc2c(c1)OCO2)c1c(Cl)cccc1NC1CCCNC1 (stereo not shown) [Compound 133]
+++	+++	COc1ccc(CNC(=O)c2c(Cl)cccc2NCC2CC2)cc1F [Compound 134]
++	++	COc1ccc(CNC(=O)c2c(Cl)cccc2Oc2cccc(Cl)c2)cc1F [Compound 136]
++	+	COc1ccc(CNC(=O)c2c(Cl)cccc2Oc2ccc(Cl)cc2)cc1F [Compound 137]
++	+++	COc1ccc(CNC(=O)c2c(Cl)cccc2OC)cc1F [Compound 138]
++	+++	CCOc1cccc(Cl)c1C(=O)NCc1ccc(OC)c(F)c1 [Compound 139]
+++	+++	COc1ccc(CNC(=O)c2c(Cl)cccc2OC(C)C)cc1F [Compound 140]
++	+++	C=CCOc1cccc(Cl)c1C(=O)NCc1ccc(OC)c(F)c1 [Compound 141]
++	+++	CCC(CC)Oc1cccc(Cl)c1C(=O)NCc1ccc(OC)c(F)c1 [Compound 142]
++	++	COCCOc1cccc(Cl)c1C(=O)NCc1ccc(OC)c(F)c1 [Compound 143]
+++	+++	COc1ccc(CNC(=O)c2c(Cl)cccc2OCC2CCC2)cc1F [Compound 144]
++	+++	COc1ccc(CNC(=O)c2c(Cl)cccc2OCC2CCCC2)cc1F [Compound 145]
++	+++	COc1ccc(CNC(=O)c2c(Cl)cccc2OC2CCCC2)cc1F [Compound 146]
+++	+++	CCCOc1cccc(Cl)c1C(=O)NCc1ccc(OC)c(F)c1 [Compound 147]
+	+	COc1ccc(CNC(=O)c2c(Cl)cccc2NC2CCCC2)cc1F [Compound 148]
++++	++++	COc1ccc(CNC(=O)c2c(Cl)cccc2OCC(C)C)cc1F [Compound 149]
+++	++	COc1ccc(CNC(=O)c2c(Cl)cccc2OC(C)C2CC2)cc1F (stereo not shown) [Compound 150]
++++	++++	COc1ccc(CNC(=O)c2c(Cl)cccc2OCC2(C)CC2)cc1F [Compound 151]
